pKd: −log10 of the molar value.
Legend:
[1] = target: T1, Serine/threonine-protein kinase LATS2 (Homo sapiens, UniProt Q9NRM7)
T1 sequence (Q9NRM7 whole entry): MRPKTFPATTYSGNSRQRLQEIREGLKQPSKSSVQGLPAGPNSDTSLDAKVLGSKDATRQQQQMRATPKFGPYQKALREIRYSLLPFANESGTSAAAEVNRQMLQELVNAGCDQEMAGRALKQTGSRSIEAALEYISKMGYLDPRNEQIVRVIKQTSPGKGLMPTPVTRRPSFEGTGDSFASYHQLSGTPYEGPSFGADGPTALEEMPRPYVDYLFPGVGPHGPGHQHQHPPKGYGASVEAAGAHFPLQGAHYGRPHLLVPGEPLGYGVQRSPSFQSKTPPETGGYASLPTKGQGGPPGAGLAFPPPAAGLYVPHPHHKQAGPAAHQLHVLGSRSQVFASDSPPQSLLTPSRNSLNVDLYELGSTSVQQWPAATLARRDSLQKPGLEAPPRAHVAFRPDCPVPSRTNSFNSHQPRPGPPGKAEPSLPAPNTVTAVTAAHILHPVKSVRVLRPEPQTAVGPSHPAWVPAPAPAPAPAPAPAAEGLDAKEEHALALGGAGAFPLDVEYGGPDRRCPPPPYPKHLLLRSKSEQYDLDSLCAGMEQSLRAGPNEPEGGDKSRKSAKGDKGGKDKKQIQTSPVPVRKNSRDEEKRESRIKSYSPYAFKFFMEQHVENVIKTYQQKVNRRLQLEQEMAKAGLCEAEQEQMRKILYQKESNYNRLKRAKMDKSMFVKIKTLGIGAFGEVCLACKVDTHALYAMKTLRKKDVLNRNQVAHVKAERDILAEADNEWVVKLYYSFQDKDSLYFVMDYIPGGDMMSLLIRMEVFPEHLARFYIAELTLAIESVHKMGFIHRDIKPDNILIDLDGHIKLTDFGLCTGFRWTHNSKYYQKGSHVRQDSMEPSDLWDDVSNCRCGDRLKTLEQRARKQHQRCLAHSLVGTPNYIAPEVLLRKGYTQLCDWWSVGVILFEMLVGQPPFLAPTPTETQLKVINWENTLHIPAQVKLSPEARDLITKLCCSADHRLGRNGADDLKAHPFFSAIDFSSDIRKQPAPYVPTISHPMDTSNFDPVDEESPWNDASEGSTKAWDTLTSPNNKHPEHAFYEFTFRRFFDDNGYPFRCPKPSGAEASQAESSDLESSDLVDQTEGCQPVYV

[2] = target: Proto-oncogene tyrosine-protein kinase receptor Ret (Homo sapiens, UniProt P07949, M918T)
Ephrin type-A receptor 4 = Ephrin type-A receptor 4 (Homo sapiens, UniProt P54764)
Myosin-IIIb = target: T2, Myosin-IIIb (Homo sapiens, UniProt Q8WXR4)
T2 sequence (Q8WXR4 whole entry): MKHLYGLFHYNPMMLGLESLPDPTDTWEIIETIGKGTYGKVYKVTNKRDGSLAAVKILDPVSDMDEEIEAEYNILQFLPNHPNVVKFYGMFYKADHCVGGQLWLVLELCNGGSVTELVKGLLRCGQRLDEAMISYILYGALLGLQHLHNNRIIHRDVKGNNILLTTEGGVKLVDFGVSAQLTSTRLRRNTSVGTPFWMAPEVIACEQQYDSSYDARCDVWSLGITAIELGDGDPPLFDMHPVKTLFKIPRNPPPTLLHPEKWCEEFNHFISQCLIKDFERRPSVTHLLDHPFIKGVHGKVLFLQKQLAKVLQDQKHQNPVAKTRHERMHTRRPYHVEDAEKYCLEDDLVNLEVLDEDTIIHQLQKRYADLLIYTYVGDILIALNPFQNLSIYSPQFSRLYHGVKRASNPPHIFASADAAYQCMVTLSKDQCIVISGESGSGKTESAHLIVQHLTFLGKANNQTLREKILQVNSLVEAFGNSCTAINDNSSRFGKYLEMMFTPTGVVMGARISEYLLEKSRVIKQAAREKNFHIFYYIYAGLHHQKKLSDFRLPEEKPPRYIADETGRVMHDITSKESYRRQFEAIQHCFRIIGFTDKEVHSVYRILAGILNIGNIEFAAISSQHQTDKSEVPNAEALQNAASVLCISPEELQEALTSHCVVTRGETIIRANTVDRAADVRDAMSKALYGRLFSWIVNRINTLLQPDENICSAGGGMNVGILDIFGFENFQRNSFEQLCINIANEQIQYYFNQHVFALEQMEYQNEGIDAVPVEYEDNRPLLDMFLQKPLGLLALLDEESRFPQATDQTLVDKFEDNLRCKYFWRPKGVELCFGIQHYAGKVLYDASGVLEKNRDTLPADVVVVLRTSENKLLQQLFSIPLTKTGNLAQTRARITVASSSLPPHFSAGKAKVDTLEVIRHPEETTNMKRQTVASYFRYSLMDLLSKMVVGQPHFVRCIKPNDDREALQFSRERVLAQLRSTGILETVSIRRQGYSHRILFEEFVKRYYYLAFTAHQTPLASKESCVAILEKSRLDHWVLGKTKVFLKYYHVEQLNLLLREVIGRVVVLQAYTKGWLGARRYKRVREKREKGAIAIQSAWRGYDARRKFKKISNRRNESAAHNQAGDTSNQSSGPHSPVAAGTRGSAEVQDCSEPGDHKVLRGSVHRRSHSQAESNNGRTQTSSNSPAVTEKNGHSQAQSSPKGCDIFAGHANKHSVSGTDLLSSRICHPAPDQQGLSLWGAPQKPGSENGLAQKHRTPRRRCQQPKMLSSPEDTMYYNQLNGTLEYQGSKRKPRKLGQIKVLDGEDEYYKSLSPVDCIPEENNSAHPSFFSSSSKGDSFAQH

Aurora kinase A = target: T3, Aurora kinase A (Homo sapiens, UniProt O14965)
T3 sequence (O14965 whole entry): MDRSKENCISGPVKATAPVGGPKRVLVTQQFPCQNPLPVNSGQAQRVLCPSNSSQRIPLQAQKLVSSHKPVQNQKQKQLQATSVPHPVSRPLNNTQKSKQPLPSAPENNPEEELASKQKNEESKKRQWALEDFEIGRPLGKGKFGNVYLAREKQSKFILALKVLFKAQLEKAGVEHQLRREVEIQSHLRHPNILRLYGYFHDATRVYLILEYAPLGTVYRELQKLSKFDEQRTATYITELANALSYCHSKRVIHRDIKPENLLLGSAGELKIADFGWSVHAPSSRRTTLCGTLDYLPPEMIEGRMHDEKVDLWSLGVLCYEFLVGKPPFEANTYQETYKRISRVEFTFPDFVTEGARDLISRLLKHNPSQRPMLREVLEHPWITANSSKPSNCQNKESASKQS

[3] = target: Casein kinase I isoform epsilon (Homo sapiens, UniProt P49674)
[4] = target: RAC-gamma serine/threonine-protein kinase (Homo sapiens, UniProt Q9Y243)
Chain of RAC-gamma serine/threonine-protein kinase (Q9Y243 whole entry): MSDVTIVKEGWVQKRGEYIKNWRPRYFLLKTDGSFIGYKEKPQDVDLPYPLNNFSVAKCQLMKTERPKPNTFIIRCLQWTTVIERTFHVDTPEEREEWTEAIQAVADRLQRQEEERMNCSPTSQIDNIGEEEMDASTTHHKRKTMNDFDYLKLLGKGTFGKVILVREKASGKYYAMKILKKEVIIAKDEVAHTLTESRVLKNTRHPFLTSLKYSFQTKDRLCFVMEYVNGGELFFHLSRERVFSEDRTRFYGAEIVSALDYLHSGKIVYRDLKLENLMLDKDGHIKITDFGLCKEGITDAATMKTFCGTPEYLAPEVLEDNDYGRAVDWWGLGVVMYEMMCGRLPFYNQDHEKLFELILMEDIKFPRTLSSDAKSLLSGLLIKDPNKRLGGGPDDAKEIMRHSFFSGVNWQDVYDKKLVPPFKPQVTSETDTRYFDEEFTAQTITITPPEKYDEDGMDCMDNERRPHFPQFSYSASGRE

Chain of Proto-oncogene tyrosine-protein kinase receptor Ret (P07949 29-1114 M918T limits assumed): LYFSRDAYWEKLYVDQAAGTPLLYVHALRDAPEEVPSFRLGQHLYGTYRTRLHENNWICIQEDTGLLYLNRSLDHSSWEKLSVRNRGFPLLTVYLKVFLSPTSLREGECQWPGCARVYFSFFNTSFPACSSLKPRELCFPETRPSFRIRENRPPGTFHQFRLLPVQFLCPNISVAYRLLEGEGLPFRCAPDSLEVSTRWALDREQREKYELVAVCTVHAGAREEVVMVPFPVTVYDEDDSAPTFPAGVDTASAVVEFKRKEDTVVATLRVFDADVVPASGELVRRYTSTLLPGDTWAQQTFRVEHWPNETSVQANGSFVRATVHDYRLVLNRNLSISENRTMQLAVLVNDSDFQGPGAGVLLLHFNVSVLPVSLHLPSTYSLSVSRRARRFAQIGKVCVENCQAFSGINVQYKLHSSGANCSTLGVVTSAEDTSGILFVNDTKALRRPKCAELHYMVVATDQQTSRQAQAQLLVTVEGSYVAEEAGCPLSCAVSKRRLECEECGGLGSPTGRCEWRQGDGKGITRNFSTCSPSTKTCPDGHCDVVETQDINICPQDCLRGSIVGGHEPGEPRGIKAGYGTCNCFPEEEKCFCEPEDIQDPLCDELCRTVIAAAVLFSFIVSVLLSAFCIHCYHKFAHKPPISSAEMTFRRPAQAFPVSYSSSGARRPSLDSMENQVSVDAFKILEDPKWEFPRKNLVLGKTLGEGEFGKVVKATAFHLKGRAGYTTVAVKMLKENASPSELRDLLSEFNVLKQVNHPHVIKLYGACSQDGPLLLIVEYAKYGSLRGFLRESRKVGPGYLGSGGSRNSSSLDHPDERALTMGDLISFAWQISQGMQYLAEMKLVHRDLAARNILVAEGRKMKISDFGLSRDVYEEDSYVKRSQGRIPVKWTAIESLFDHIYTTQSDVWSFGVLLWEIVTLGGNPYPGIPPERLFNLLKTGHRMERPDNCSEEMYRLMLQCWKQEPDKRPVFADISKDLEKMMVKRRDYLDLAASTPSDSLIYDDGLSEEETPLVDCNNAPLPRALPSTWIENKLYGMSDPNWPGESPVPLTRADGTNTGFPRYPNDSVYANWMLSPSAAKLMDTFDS
Chain of Ephrin type-A receptor 4 (P54764 whole entry): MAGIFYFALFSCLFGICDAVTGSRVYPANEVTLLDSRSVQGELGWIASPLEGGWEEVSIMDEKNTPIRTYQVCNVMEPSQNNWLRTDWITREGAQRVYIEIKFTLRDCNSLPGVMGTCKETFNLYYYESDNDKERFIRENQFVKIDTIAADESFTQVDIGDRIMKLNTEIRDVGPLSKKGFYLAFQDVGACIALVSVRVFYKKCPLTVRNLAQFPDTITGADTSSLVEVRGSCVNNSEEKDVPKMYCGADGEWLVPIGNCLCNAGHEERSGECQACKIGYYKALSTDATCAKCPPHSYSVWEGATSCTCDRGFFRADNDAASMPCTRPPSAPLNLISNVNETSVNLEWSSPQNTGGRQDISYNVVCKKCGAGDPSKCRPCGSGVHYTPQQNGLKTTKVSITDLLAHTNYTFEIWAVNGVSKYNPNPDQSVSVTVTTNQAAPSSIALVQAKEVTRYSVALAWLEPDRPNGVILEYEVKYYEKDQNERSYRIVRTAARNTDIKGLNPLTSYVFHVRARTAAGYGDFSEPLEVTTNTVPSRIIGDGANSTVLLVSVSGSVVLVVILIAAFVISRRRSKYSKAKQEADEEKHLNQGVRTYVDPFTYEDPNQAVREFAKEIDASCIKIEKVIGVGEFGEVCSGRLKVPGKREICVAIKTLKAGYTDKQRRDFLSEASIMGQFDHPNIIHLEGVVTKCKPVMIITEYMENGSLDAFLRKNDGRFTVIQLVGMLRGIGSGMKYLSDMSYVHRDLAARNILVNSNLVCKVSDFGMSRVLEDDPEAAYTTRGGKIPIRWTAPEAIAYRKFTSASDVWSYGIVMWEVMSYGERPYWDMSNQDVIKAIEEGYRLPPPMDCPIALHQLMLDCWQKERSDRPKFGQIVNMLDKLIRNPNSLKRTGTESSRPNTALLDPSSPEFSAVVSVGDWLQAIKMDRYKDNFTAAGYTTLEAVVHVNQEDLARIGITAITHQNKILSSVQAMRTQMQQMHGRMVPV
Chain of Casein kinase I isoform epsilon (P49674 whole entry, canonical isoform): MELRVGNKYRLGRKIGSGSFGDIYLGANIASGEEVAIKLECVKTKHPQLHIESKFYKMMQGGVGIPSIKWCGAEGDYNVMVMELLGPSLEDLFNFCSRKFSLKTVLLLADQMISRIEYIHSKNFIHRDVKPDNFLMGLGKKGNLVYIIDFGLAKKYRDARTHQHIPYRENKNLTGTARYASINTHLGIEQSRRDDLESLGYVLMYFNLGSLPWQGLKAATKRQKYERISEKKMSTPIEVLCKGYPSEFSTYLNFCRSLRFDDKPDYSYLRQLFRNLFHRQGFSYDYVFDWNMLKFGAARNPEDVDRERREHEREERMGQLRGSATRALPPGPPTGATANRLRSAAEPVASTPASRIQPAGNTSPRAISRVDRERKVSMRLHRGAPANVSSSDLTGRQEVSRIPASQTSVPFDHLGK

| SMILES | pKd [1] | pKd [2] | pKd (Ephrin type-A receptor 4) | pKd (Myosin-IIIb) | pKd (Aurora kinase A) | pKd [3] | pKd [4] |
| --- | --- | --- | --- | --- | --- | --- | --- |
| COCC(=O)NC/C=C/c1ccc2ncnc(Nc3ccc(Oc4ccc(C)nc4)c(C)c3)c2c1 [CP-724714] | < 5.00 | < 5.00 | < 5.00 | < 5.00 | < 5.00 | < 5.00 | < 5.00 |
| Nc1nc(Nc2ccc(S(N)(=O)=O)cc2)nn1C(=O)c1c(F)cccc1F [JNJ-7706621] | – | – | < 5.00 | < 5.00 | – | 5.44 | < 5.00 |
| CCOc1cc2ncc(C#N)c(Nc3ccc(F)c(Cl)c3)c2cc1NC(=O)/C=C/CN(C)C [PELITINIB] | < 5.00 | < 5.00 | < 5.00 | < 5.00 | < 5.00 | 7.00 | < 5.00 |
| Oc1ccc(-c2nc(-c3ccncc3)c(-c3ccc(F)cc3)[nH]2)cc1 [SB-202190] | – | < 5.00 | < 5.00 | < 5.00 | < 5.00 | 6.77 | < 5.00 |
| NC(=O)c1ccc(-c2nc(-c3ccc4c(c3)OCO4)c(-c3ccccn3)[nH]2)cc1 [SB-431542] | < 5.00 | < 5.00 | < 5.00 | < 5.00 | < 5.00 | – | < 5.00 |
